Data reported in PubChem BioAssay AID338 (DTP/NCI, 2004).
Where “and” joins values, the source holds several entries; their conditions need not be identical. Equal values may be shown once. Toxic doses and inconclusive results are not listed.

Test system: BDF1 mice, P388 leukemia (terephthalanilide-resistant), survival T/C
Test: NCI In Vivo Anticancer Drug Screen. Data for tumor model P388 Leukemia resistant to A Terephthalanilide; NSC 38280 (intraperitoneal) in B6D2F1 (BDF1) mice
Details: endpoint: median survival time, higher = longer survival
Experimental: The antitumor activity of compounds was measured in mice bearing transplantable tumors. Survival or tumor size were measured and the results are expressed as the measurement made in the treated group (T) divided by the measurement made in the vehicle treated control group (C). The tumor model used in this assay is P388 Leukemia resistant to A Terephthalanilide; NSC 38280 (intraperitoneal) in B6D2F1 (BDF1) mice

[1] = dose: 50.0 mg/kg/injection, schedule: Q01DX010 (ip), vehicle: saline
[2] = dose: 100.0 mg/kg/injection, schedule: Q01DX010 (ip), vehicle: saline
[3] = dose: 200.0 mg/kg/injection, schedule: Q01DX010 (ip), vehicle: saline
[4] = dose: 62.5 mg/kg/injection, schedule: Q01DX010 (ip), vehicle: saline
[5] = dose: 125.0 mg/kg/injection, schedule: Q01DX010 (ip), vehicle: saline
[6] = dose: 250.0 mg/kg/injection, schedule: Q01DX010 (ip), vehicle: saline
[7] = dose: 25.0 mg/kg/injection, schedule: Q01DX010 (ip), vehicle: saline

CC1CN=C(c2ccc(NC(=O)c3ccc(C(=O)Nc4ccc(C5=NCC(C)N5)cc4)cc3)cc2)N1 (stereo not given)
T/C (dose: 10.0 mg/kg/injection, schedule: Q01DX010 (ip), vehicle: saline): 111 % of control
T/C (dose: 15.0 mg/kg/injection, schedule: Q01DX010 (ip), vehicle: saline): 111 % of control
T/C (dose: 22.0 mg/kg/injection, schedule: Q01DX010 (ip), vehicle: saline): 111 % of control
T/C (dose: 33.0 mg/kg/injection, schedule: Q01DX010 (ip), vehicle: saline): 111 % of control

N#[N+]c1cnc([O-])[nH]c1=O
T/C (dose: 1.25 mg/kg/injection, schedule: Q01DX010 (ip), vehicle: saline): 113 % of control
T/C (dose: 2.5 mg/kg/injection, schedule: Q01DX010 (ip), vehicle: saline): 113 % of control
T/C (dose: 5.0 mg/kg/injection, schedule: Q01DX010 (ip), vehicle: saline): 95 % of control and 122 % of control

CS(=O)(=O)OCC(O)C(O)C(O)C(O)COS(C)(=O)=O (stereo not given)
T/C [1]: 100 % of control
T/C [2]: 100 % of control
T/C [3]: 100 % of control
T/C (dose: 400.0 mg/kg/injection, schedule: Q01DX010 (ip), vehicle: saline): 100 % of control

c1ccc(CCSc2ncnc3nc[nH]c23)cc1
T/C [4]: 90 % of control
T/C [5]: 90 % of control
T/C [6]: 100 % of control
T/C (dose: 500.0 mg/kg/injection, schedule: Q01DX010 (ip), vehicle: saline): 100 % of control

CNc1nc(Nc2ccc(C3=NCCN3)cc2)nc(Nc2ccc(C3=NCCN3)cc2)n1
T/C (dose: 13.3 mg/kg/injection, schedule: Q01DX010 (ip), vehicle: saline): 117 % of control
T/C (dose: 20.0 mg/kg/injection, schedule: Q01DX010 (ip), vehicle: saline): 111 % of control
T/C (dose: 30.0 mg/kg/injection, schedule: Q01DX010 (ip), vehicle: saline): 117 % of control

C[C@H]1C(=O)O[C@@H]2CCN3CC=C(COC(=O)[C@](C)(O)[C@@]1(C)O)[C@H]23
T/C (dose: 3.13 mg/kg/injection, schedule: Q01DX010 (ip), vehicle: saline): 90 % of control and 100 % of control
T/C (dose: 6.25 mg/kg/injection, schedule: Q01DX010 (ip), vehicle: saline): 95 % of control
T/C (dose: 12.5 mg/kg/injection, schedule: Q01DX010 (ip), vehicle: saline): 95 % of control and 100 % of control
T/C [7]: 105 % of control and 109 % of control

S=P(N1CC1)(N1CC1)N1CC1
T/C (dose: 0.75 mg/kg/injection, schedule: Q01DX010 (ip), vehicle: saline): 112 % of control
T/C (dose: 6.0 mg/kg/injection, schedule: Q01DX010 (ip), vehicle: saline): 162 % of control

O=C(Nc1cccc(C(=O)Nc2ccc(C3=NCCN3)cc2)c1)c1ccc(C2=NCCN2)cc1
T/C (dose: 54.0 mg/kg/injection, schedule: Q01DX010 (ip), vehicle: saline): 117 % of control

O=C(Nc1ccc(C2=NCCN2)cc1)c1ccc(C(=O)Nc2ccc(C3=NCCN3)cc2)c(NC(=O)c2ccc(C(=O)Nc3cc(C(=O)Nc4ccc(C5=NCCN5)cc4)ccc3C(=O)Nc3ccc(C4=NCCN4)cc3)cc2)c1
T/C [7]: 100 % of control
T/C [1]: 94 % of control
T/C [2]: 94 % of control
T/C [3]: 100 % of control

CN(C)CC(=O)c1ccc(O)c(O)c1
T/C [3]: 113 % of control
T/C (dose: 300.0 mg/kg/injection, schedule: Q01DX010 (ip), vehicle: saline): 113 % of control
T/C (dose: 450.0 mg/kg/injection, schedule: Q01DX010 (ip), vehicle: saline): 113 % of control

CCOC(=O)NP(=O)(N1CC1(C)C)N1CC1(C)C (stereo not given)
T/C (dose: 31.3 mg/kg/injection, schedule: Q01DX010 (ip), vehicle: saline): 110 % of control
T/C [4]: 160 % of control
T/C [5]: 190 % of control
T/C [6]: 160 % of control

C[C@]12C=CC(=O)C=C1CC[C@@H]1[C@@H]2[C@@H](O)C[C@@]2(C)[C@H]1CC[C@]2(O)C(=O)CO
T/C (dose: 12.5 mg/kg/injection, schedule: Q01DX010 (sc), vehicle: steriod suspending solution): 112 % of control
T/C (dose: 25.0 mg/kg/injection, schedule: Q01DX010 (sc), vehicle: steriod suspending solution): 118 % of control
T/C (dose: 50.0 mg/kg/injection, schedule: Q01DX010 (sc), vehicle: steriod suspending solution): 106 % of control
T/C (dose: 100.0 mg/kg/injection, schedule: Q01DX010 (sc), vehicle: steriod suspending solution): 112 % of control
